Literature values, collected in patent publication US9320791B2, “Peptides from chaperonin 60.1” (PE[…], priority 2011, dated 2016).

System: recruitment of eosinophils
Conditions: animal model of allergic airway inflammation; disclosed in WO2009/106819

DGSVVVNKVSELPAGHGLNVNTLSYGDLAAD (listed as Mycobacterium tuberculosis) [Peptide 4, peptide derivable from MtCpn60.1 disclosed in WO2009/106819]
recruitment of eosinophils: significantly reduce
